Laboratory results: PubChem BioAssay (NCI)
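Where inhibition never reached the appropriate level, the endpoint shown equals the highest concentration tested. Otherwise, values were interpolated linearly from a five-concentration, 48-hour dose response in 96-well plates. Abbreviation: GI50, concentration required for 50% inhibition of growth. TGI is the concentration that stops growth completely.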

Legend:
Assay in all cases: growth of human tumour cells (NCI), 48 h
[1] = tested on: SW-620 colon
[2] = tested on: MDA-MB-468 breast
[3] = tested on: NCI-H522 lung
[4] = tested on: T-47D breast
[5] = tested on: HOP-62 NSCLC
[6] = tested on: CAKI-1 renal
[7] = tested on: BT-549 breast
[8] = tested on: HCC-2998 colon
[9] = tested on: U251 CNS
[10] = tested on: SK-MEL-2 melanoma
[11] = tested on: SNB-75 CNS
[12] = tested on: HL-60(TB) leukemia
[13] = tested on: HS 578T breast
[14] = tested on: HCT-15 colon
[15] = tested on: OVCAR-5 ovarian
[16] = tested on: NCI-H460 lung
[17] = tested on: MCF7 breast
[18] = tested on: K-562 leukemia
[19] = tested on: COLO 205 colon
[20] = tested on: OVCAR-8 ovarian
[21] = tested on: CCRF-CEM leukemia
[22] = tested on: KM12 colon
[23] = tested on: MALME-3M melanoma
[24] = tested on: UACC-62 melanoma
[25] = tested on: NCI/ADR-RES ovarian
[26] = tested on: IGROV1 ovarian
[27] = tested on: UACC-257 melanoma
[28] = tested on: NCI-H226 lung
[29] = tested on: TK-10 renal
[30] = tested on: SK-OV-3 ovarian
[31] = tested on: SR leukemia
[32] = tested on: NCI-H23 lung
[33] = tested on: MOLT-4 leukemia
[34] = tested on: RXF 393 renal
[35] = tested on: OVCAR-3 ovarian
[36] = tested on: DU-145 prostate
[37] = tested on: A549 NSCLC
[38] = tested on: 786-0 renal
[39] = tested on: MDA-MB-435
[40] = tested on: SNB-19 CNS
[41] = tested on: PC-3 prostate
[42] = tested on: SF-539 CNS
[43] = tested on: LOX IMVI melanoma
[44] = tested on: M14 melanoma
[45] = tested on: HOP-92 NSCLC
[46] = tested on: EKVX NSCLC
[47] = tested on: MDA-MB-231 breast
[48] = tested on: SK-MEL-28 melanoma
[49] = tested on: RPMI-8226 leukemia
[50] = tested on: OVCAR-4 ovarian
[51] = tested on: SN12C renal
[52] = tested on: A498 renal
[53] = tested on: HT29 colon
[54] = tested on: SK-MEL-5 melanoma
[55] = tested on: UO-31 renal
[56] = tested on: SF-268 CNS
[57] = tested on: HCT-116 colon
[58] = tested on: SF-295 CNS
[59] = tested on: ACHN renal

COc1cnc2c(c1)C(=O)c1c-2n(CCCNCCO)c(=O)c2cc(OC)c(OC)cc12
GI50 [1]: 1.37 µM | TGI [1]: 18.2 µM | GI50 [2]: 1.08 µM | TGI [2]: 2.78 µM | GI50 [3]: 0.459 µM | TGI [3]: 3.33 µM | GI50 [4]: 0.746 µM | TGI [4]: 12.3 µM | GI50 [5]: 0.349 µM | TGI [5]: 3.78 µM | GI50 [6]: 1.85 µM | TGI [6]: 16.3 µM | GI50 [7]: 9.48 µM | TGI [7]: 22.9 µM | GI50 [8]: 2.25 µM | TGI [8]: 10.8 µM | GI50 [9]: 0.495 µM | TGI [9]: 10.8 µM | GI50 [10]: 17.1 µM | TGI [10]: 37.9 µM | GI50 [11]: 0.352 µM | TGI [11]: 10.3 µM | GI50 [12]: 0.733 µM | TGI [12]: 13.5 µM | GI50 [13]: 12.1 µM | TGI [13]: 43.1 µM | GI50 [14]: 2.74 µM | TGI [14]: 14.6 µM | GI50 [15]: 4.91 µM | TGI [15]: 18.4 µM | GI50 [16]: 0.423 µM | TGI [16]: 8.75 µM | GI50 [17]: 0.174 µM | TGI [17]: 4.05 µM | GI50 [18]: 0.708 µM | TGI [18]: 22.9 µM | GI50 [19]: 3.33 µM | TGI [19]: 20 µM | GI50 [20]: 3 µM | TGI [20]: 16 µM | GI50 [21]: 0.268 µM | TGI [21]: 18.8 µM | GI50 [22]: 12.4 µM | TGI [22]: 25.9 µM | GI50 [23]: 7.2 µM | TGI [23]: 21.6 µM | GI50 [24]: 1.17 µM | TGI [24]: 10.4 µM | GI50 [25]: 16.4 µM | TGI [25]: > 100 µM | GI50 [26]: 12.1 µM | TGI [26]: 28 µM | GI50 [27]: 13.6 µM | TGI [27]: > 100 µM | GI50 [28]: 1.35 µM | TGI [28]: 9.83 µM | GI50 [29]: 15.5 µM | TGI [29]: 30.1 µM | GI50 [30]: 1.62 µM | TGI [30]: 5.98 µM | GI50 [31]: 0.393 µM | TGI [31]: 21.5 µM | GI50 [32]: 0.395 µM | TGI [32]: 2.34 µM | GI50 [33]: 0.311 µM | TGI [33]: 19.1 µM | GI50 [34]: 1.52 µM | TGI [34]: 5.81 µM | GI50 [35]: 4.52 µM | TGI [35]: 16.9 µM | GI50 [36]: 0.726 µM | TGI [36]: 12.1 µM | GI50 [37]: 4.88 µM | TGI [37]: 20.7 µM | GI50 [38]: 2.54 µM | TGI [38]: 14.9 µM | GI50 [39]: 6.88 µM | TGI [39]: 20.7 µM | GI50 [40]: 1.47 µM | TGI [40]: 15.3 µM | GI50 [41]: 2.77 µM | TGI [41]: 22.2 µM | GI50 [42]: 0.492 µM | TGI [42]: 2.4 µM | GI50 [43]: 0.475 µM | TGI [43]: 1.9 µM | GI50 [44]: 3.77 µM | TGI [44]: 15.8 µM | GI50 [45]: 5.07 µM | TGI [45]: 20.8 µM | GI50 [46]: 6.9 µM | TGI [46]: 20.4 µM | GI50 [47]: 6.52 µM | TGI [47]: 20.3 µM | GI50 [48]: 13.2 µM | TGI [48]: 26.2 µM | GI50 [49]: 1.73 µM | TGI [49]: 10.5 µM | GI50 [50]: 8.24 µM | TGI [50]: 27.6 µM | GI50 [51]: 3.28 µM | TGI [51]: 16 µM | GI50 [52]: 12.5 µM | TGI [52]: 25.6 µM | GI50 [53]: 1.46 µM | TGI [53]: 10.9 µM | GI50 [54]: 0.72 µM | TGI [54]: 3.16 µM | GI50 [55]: 5.96 µM | TGI [55]: 19.5 µM | GI50 [56]: 0.92 µM | TGI [56]: 20.9 µM | GI50 [57]: 1.15 µM | TGI [57]: 2.85 µM | GI50 [58]: 0.418 µM | TGI [58]: 12.3 µM | GI50 [59]: 2.1 µM | TGI [59]: 13.2 µM

CCc1ccc(SC2c3cc(OC)ccc3Oc3nc(N)c(C#N)c(N)c32)cc1 (stereo unspecified)
GI50 [1]: 3.15 µM | TGI [1]: 13.1 µM | GI50 [2]: 2.1 µM | TGI [2]: 6.56 µM | GI50 [3]: 1.69 µM | TGI [3]: 3.49 µM | GI50 [4]: 3.36 µM | TGI [4]: 32.9 µM | GI50 [5]: 3.77 µM | TGI [5]: > 100 µM | GI50 [6]: 1.89 µM | TGI [6]: 15 µM | GI50 [7]: 0.742 µM | TGI [7]: 3.25 µM | GI50 [8]: 4.9 µM | TGI [8]: 17.1 µM | GI50 [9]: 1.82 µM | TGI [9]: 15.3 µM | GI50 [10]: 3.42 µM | TGI [10]: 13 µM | GI50 [11]: 0.566 µM | TGI [11]: 4.02 µM | GI50 [12]: 2.09 µM | TGI [12]: 6.11 µM | GI50 [13]: 2.35 µM | TGI [13]: 9.18 µM | GI50 [14]: 2.96 µM | TGI [14]: 19.3 µM | GI50 [15]: 3.41 µM | TGI [15]: 14.4 µM | GI50 [16]: 2.84 µM | TGI [16]: 15.3 µM | GI50 [17]: 3.04 µM | TGI [17]: 13.6 µM | GI50 [18]: 3.51 µM | TGI [18]: 24.4 µM | GI50 [19]: 2.35 µM | TGI [19]: 6.19 µM | GI50 [20]: 5.85 µM | TGI [20]: 37.4 µM | GI50 [21]: 0.225 µM | TGI [21]: 4.34 µM | GI50 [22]: 3.43 µM | TGI [22]: 16.1 µM | GI50 [23]: 10.6 µM | TGI [23]: 22.7 µM | GI50 [24]: 2.73 µM | TGI [24]: 11.5 µM | GI50 [25]: 3.24 µM | TGI [25]: 26.4 µM | GI50 [26]: 0.349 µM | TGI [26]: 1.51 µM | GI50 [27]: 9.06 µM | TGI [27]: 29.6 µM | GI50 [28]: 2.26 µM | TGI [28]: 23.3 µM | GI50 [29]: 9.67 µM | TGI [29]: 32.2 µM | GI50 [30]: 6.62 µM | TGI [30]: 82.4 µM | GI50 [31]: 2.61 µM | TGI [31]: 22.8 µM | GI50 [32]: 2.9 µM | TGI [32]: 14 µM | GI50 [33]: 1.28 µM | TGI [33]: 9.69 µM | GI50 [34]: 1.76 µM | TGI [34]: 5.09 µM | GI50 [35]: 2.9 µM | TGI [35]: 12.6 µM | GI50 [36]: 11.7 µM | TGI [36]: 24.6 µM | GI50 [37]: 3.99 µM | TGI [37]: 49.4 µM | GI50 [38]: 3.11 µM | TGI [38]: 24.9 µM | GI50 [39]: 2.05 µM | TGI [39]: 11.6 µM | GI50 [40]: 3.17 µM | TGI [40]: 16.6 µM | GI50 [41]: 1.52 µM | TGI [41]: 18.6 µM | GI50 [42]: 1.59 µM | TGI [42]: 3.27 µM | GI50 [43]: 0.23 µM | TGI [43]: 0.658 µM | GI50 [44]: 2.67 µM | TGI [44]: 12.4 µM | GI50 [45]: 3.66 µM | TGI [45]: 35.4 µM | GI50 [46]: 3.74 µM | TGI [46]: 17.3 µM | GI50 [47]: 3.34 µM | TGI [47]: 17 µM | GI50 [48]: 2.99 µM | TGI [48]: 12.5 µM | GI50 [49]: 3.02 µM | TGI [49]: 14.6 µM | GI50 [50]: 4.23 µM | TGI [50]: 41.6 µM | GI50 [51]: 1.76 µM | TGI [51]: 15.8 µM | GI50 [52]: 3.32 µM | TGI [52]: 10.8 µM | GI50 [53]: 6.15 µM | TGI [53]: > 100 µM | GI50 [54]: 3.23 µM | TGI [54]: 13.7 µM | GI50 [55]: 0.575 µM | TGI [55]: 4.17 µM | GI50 [56]: 1.99 µM | TGI [56]: 20.5 µM | GI50 [57]: 3.05 µM | TGI [57]: 13.9 µM | GI50 [58]: 3.28 µM | TGI [58]: 15.7 µM | GI50 [59]: 5.6 µM | TGI [59]: 25.3 µM
